# Experimental data reported in patent US20230330093A1, “APPLICATION OF NITROGEN-CONTAINING SATURATED HETEROCYCLIC COMPOUND” (SHANGHAI PHARMACEUTICALS HOLDING CO., LTD., priority 2020, published 2023).
# Key:
# cynomolgus monkeys [1] = assay: 4-week repeated-dose safety study: clinical observations, mortality, body weight; format: in vivo; details: for body weight gain: no statistical significance
# Procedure: The compound of Formula I was prepared and confirmed according to the method in CN103562191B. The 0.5% of sodium carboxymethyl cellulose (CMC-Na) was used as a vehicle. The compound of Formula I was stored at room temperature, protected from light and wetness. For cynomolgus monkey safety studies, the test substance was suspended in 0.5% CMC-Na at the relevant concentrations. The homogeneity, concentration and one week stability of prepared suspension was analyzed to ensure proper administration of the reported doses. The six month accelerated stability of active pharmaceutical ingredient (API) was tested by the inventor.
# Healthy male and female cynomolgus monkeys aged 3-4 years were supplied by Hainan New Source Biotech Co. Ltd. (Hainan, China). The body weight range at the start of treatment was 3.2-5.8 kg for male and 2.5-3.7 kg for female. They were housed for a 36-day acclimation period before study. Once a day in the morning, animals eat and drink freely.
# Mortality and clinical signs were evaluated daily from the beginning of the quarantine period. Each animal was examined at least twice daily for any change in behavior, reaction to treatment or illness after administration.
# Observations included, but were not limited to the following: changes in skin and fur; eyes and mucous membranes; respiratory, circulatory, autonomic, central nervous systems and behavior patterns. Rectal temperature was measured before administration (twice), at 1 and 24 h after first administration, and before d26 administration and at 1 and 24 h after d26 administration. Body weight was measured every week. Food consumption was estimated for monkey every day. Ophthalmoscopy was conducted for the monkey study using a portable slit lamp (YZ2) and a direct ophthalmoscope (GFJY-01B).
# cynomolgus monkeys [2] = assay: 4-week safety study: necropsy, gross pathology and organ weights; details: Female;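 further: daily nasogastric dosing for 28 days, organs weighed at necropsy on day 28 or after a 28-day drug-free recovery (day 56), relative weights expressed as percent of body or brain weight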
# Procedure: Cynomolgus monkeys (5/sex/group) were selected using a computerized randomization procedure based on body weight, and the compound of Formula I was administered to the cynomolgus monkeys by nasogastric feeding at dose levels of 0 (control), 20, 100, 450 mg/kg/day in a volume of 5 ml/kg. Individual dose volumes were adjusted weekly based on body weight of animals. For all the groups, 2/3 of the animals were randomly selected and euthanized on day 28. The remaining animals were euthanized after 28-day drug free period.
# A complete gross necropsy was conducted on all animals by visual inspection at the end of the exposure period (day 28) and the recovery phase (day 56). The following selected organs were trimmed, weighed and evaluated in terms of absolute weight and as a percentage of final body weight or brain weight: brain, heart, kidney, liver, spleen, thymus, testes, epididymides, uterus, ovaries, adrenals and thyroid (including the parathyroid). The following tissues were preserved in 10% neutral buffered formalin: brain, pituitary gland, thyroid (including the parathyroid), trachea, heart, pancreas, spleen, adrenal glands, prostate, ovaries, uterus (including cervix uteri and oviduct), vagina, testes, epididymides, seminal vesicle, esophagus, duodenum, jejunum, ileum, cecum, colon, rectum, mesenteric lymph nodes, Peyer's patches, submaxillary lymph nodes, aorta, eyes, skeletal muscle, sciatic nerve, femur (including metaphysis), mammary gland, sternum, salivary glands, spinal cord, urinary bladder, lung (including the bronchi), liver, kidneys, stomach, bone marrow (sternal), thymus, sternum, gallbladder, any gross lesions or masses. The lung tissue was inflated with fixative at the time of necropsy. All the preserved tissues were paraffin embedded, sectioned, stained with hematoxylin and eosin (HE) and examined microscopically. Bone marrow cellular morphology examination was conducted with both smear (sternum) and paraffin-embedded sternum section.
# For each sex, body weight, rectal temperature, ECG, organ weight, hematological parameters and serum biochemical data were analyzed with a statistical software SAS 9.3. Firstly homogeneity of variance was analyzed using Levene's test. If P>0.05, the one-way ANOVA analysis was employed. If P<0.05, the Kruskal-Wallis test was used. If the resulting ANOVA p-value was <0.05, a comparison of each group using the Dunnett T test was performed. If the resulting Kruskal-Wallis test p-value was <0.05, then the Dunnett T test was performed after data rank conversion.
compound,measurement,setting,value
COC(=O)NCCCn1nc([C@@H](C)N(C(=O)[C@H]2CNCCO2)C2CC2)c2ccc(C)nc21 [compound of Formula I],clinical signs of toxicity related to treatment in other animals,"cynomolgus monkeys [1]; 20, 100, 450 mg/kg/day for 4 weeks",no apparent clinical signs of toxicity
same,body weight gain,"cynomolgus monkeys [1]; high dose (450 mg/kg/day) females, controls 3.2±0.2",2.7±0.4
same,body weight gain,"cynomolgus monkeys [1]; high dose (450 mg/kg/day) males, controls 4.6±0.5",4.1±0.5
same,mortality,"cynomolgus monkeys [1]; high dose (450 mg/kg/day), nasogastric, day23",Treatment related early death occurred in one high dose female
same,Liver Absolute weight,"cynomolgus monkeys [2]; 20 mg/kg, d 28",58.37 ± 7.38 g
same,Liver Relative weight (/body weight),"cynomolgus monkeys [2]; 20 mg/kg, d 28",2.06 ± 0.22
same,Liver Relative weight (/brain weight),"cynomolgus monkeys [2]; 20 mg/kg, d 28",90.10 ± 7.72
same,Thymus Absolute weight,"cynomolgus monkeys [2]; 20 mg/kg, d 28",1.23 ± 0.40 g
same,Thymus Relative weight (/body weight),"cynomolgus monkeys [2]; 20 mg/kg, d 28",0.04 ± 0.01
same,Thymus Relative weight (/brain weight),"cynomolgus monkeys [2]; 20 mg/kg, d 28",1.87 ± 0.46
same,Uterus Absolute weight,"cynomolgus monkeys [2]; 20 mg/kg, d 28",5.97 ± 1.20 g
same,Uterus Relative weight (/body weight),"cynomolgus monkeys [2]; 20 mg/kg, d 28",0.21 ± 0.04
same,Uterus Relative weight (/brain weight),"cynomolgus monkeys [2]; 20 mg/kg, d 28",9.19 ± 1.57
same,kidney Absolute weight,"cynomolgus monkeys [2]; 20 mg/kg, d 28",12.20 ± 2.23 g
same,kidney Relative weight (/body weight),"cynomolgus monkeys [2]; 20 mg/kg, d 28",0.43 ± 0.07
same,kidney Relative weight (/brain weight),"cynomolgus monkeys [2]; 20 mg/kg, d 28",18.73 ± 1.74
same,Liver Absolute weight,"cynomolgus monkeys [2]; 20 mg/kg, d 56",68.35 ± 3.32 g
same,Liver Relative weight (/body weight),"cynomolgus monkeys [2]; 20 mg/kg, d 56",2.01 ± 0.07
same,Liver Relative weight (/brain weight),"cynomolgus monkeys [2]; 20 mg/kg, d 56",104.00 ± 10.62
same,Thymus Absolute weight,"cynomolgus monkeys [2]; 20 mg/kg, d 56",2.00 ± 0.71 g
same,Thymus Relative weight (/body weight),"cynomolgus monkeys [2]; 20 mg/kg, d 56",0.06 ± 0.02
same,Thymus Relative weight (/brain weight),"cynomolgus monkeys [2]; 20 mg/kg, d 56",3.07 ± 1.24
same,Uterus Absolute weight,"cynomolgus monkeys [2]; 20 mg/kg, d 56",11.30 ± 3.25 g
same,Uterus Relative weight (/body weight),"cynomolgus monkeys [2]; 20 mg/kg, d 56",0.33 ± 0.07
same,Uterus Relative weight (/brain weight),"cynomolgus monkeys [2]; 20 mg/kg, d 56",17.30 ± 5.86
same,kidney Absolute weight,"cynomolgus monkeys [2]; 20 mg/kg, d 56",13.75 ± 0.78 g
same,kidney Relative weight (/body weight),"cynomolgus monkeys [2]; 20 mg/kg, d 56",0.41 ± 0.06
same,kidney Relative weight (/brain weight),"cynomolgus monkeys [2]; 20 mg/kg, d 56",20.86 ± 0.06
same,Liver Absolute weight,"cynomolgus monkeys [2]; 100 mg/kg, d 28",57.60 ± 4.25 g
same,Liver Relative weight (/body weight),"cynomolgus monkeys [2]; 100 mg/kg, d 28",1.96 ± 0.13
same,Liver Relative weight (/brain weight),"cynomolgus monkeys [2]; 100 mg/kg, d 28",96.55 ± 7.51
same,Thymus Absolute weight,"cynomolgus monkeys [2]; 100 mg/kg, d 28",0.73 ± 0.50 g
same,Thymus Relative weight (/body weight),"cynomolgus monkeys [2]; 100 mg/kg, d 28",0.02 ± 0.02
same,Thymus Relative weight (/brain weight),"cynomolgus monkeys [2]; 100 mg/kg, d 28",1.18 ± 0.73
same,Uterus Absolute weight,"cynomolgus monkeys [2]; 100 mg/kg, d 28",7.03 ± 0.94 g
same,Uterus Relative weight (/body weight),"cynomolgus monkeys [2]; 100 mg/kg, d 28",0.24 ± 0.03
same,Uterus Relative weight (/brain weight),"cynomolgus monkeys [2]; 100 mg/kg, d 28",11.84 ± 2.02
same,kidney Absolute weight,"cynomolgus monkeys [2]; 100 mg/kg, d 28",11.67 ± 0.71 g
same,kidney Relative weight (/body weight),"cynomolgus monkeys [2]; 100 mg/kg, d 28",0.40 ± 0.02
same,kidney Relative weight (/brain weight),"cynomolgus monkeys [2]; 100 mg/kg, d 28",19.61 ± 1.86
same,Liver Absolute weight,"cynomolgus monkeys [2]; 100 mg/kg, d 56",68.45 ± 20.01 g
same,Liver Relative weight (/body weight),"cynomolgus monkeys [2]; 100 mg/kg, d 56",1.86 ± 0.37
same,Liver Relative weight (/brain weight),"cynomolgus monkeys [2]; 100 mg/kg, d 56",104.90 ± 37.06
same,Thymus Absolute weight,"cynomolgus monkeys [2]; 100 mg/kg, d 56",2.35 ± 0.49 g
same,Thymus Relative weight (/body weight),"cynomolgus monkeys [2]; 100 mg/kg, d 56",0.07 ± 0.02
same,Thymus Relative weight (/brain weight),"cynomolgus monkeys [2]; 100 mg/kg, d 56",3.54 ± 0.52
same,Uterus Absolute weight,"cynomolgus monkeys [2]; 100 mg/kg, d 56",8.30 ± 3.39 g
same,Uterus Relative weight (/body weight),"cynomolgus monkeys [2]; 100 mg/kg, d 56",0.23 ± 0.12
same,Uterus Relative weight (/brain weight),"cynomolgus monkeys [2]; 100 mg/kg, d 56",12.44 ± 4.34
same,kidney Absolute weight,"cynomolgus monkeys [2]; 100 mg/kg, d 56",14.15 ± 2.33 g
same,kidney Relative weight (/body weight),"cynomolgus monkeys [2]; 100 mg/kg, d 56",0.39 ± 0.03
same,kidney Relative weight (/brain weight),"cynomolgus monkeys [2]; 100 mg/kg, d 56",21.60 ± 4.92
same,Liver Absolute weight,"cynomolgus monkeys [2]; 450 mg/kg, d 28",69.40 ± 3.68 g
same,Liver Relative weight (/body weight),"cynomolgus monkeys [2]; 450 mg/kg, d 28",2.78 ± 0.31
same,Liver Relative weight (/brain weight),"cynomolgus monkeys [2]; 450 mg/kg, d 28",112.03 ± 12.42
same,Thymus Absolute weight,"cynomolgus monkeys [2]; 450 mg/kg, d 28",0.50 ± 0.14 g
same,Thymus Relative weight (/body weight),"cynomolgus monkeys [2]; 450 mg/kg, d 28",0.02 ± 0.01
same,Thymus Relative weight (/brain weight),"cynomolgus monkeys [2]; 450 mg/kg, d 28",0.81 ± 0.27
same,Uterus Absolute weight,"cynomolgus monkeys [2]; 450 mg/kg, d 28",3.50 ± 0.14 g
same,Uterus Relative weight (/body weight),"cynomolgus monkeys [2]; 450 mg/kg, d 28",0.14 ± 0.01
same,Uterus Relative weight (/brain weight),"cynomolgus monkeys [2]; 450 mg/kg, d 28",5.63 ± 0.10
same,kidney Absolute weight,"cynomolgus monkeys [2]; 450 mg/kg, d 28",12.95 ± 0.07 g
same,kidney Relative weight (/body weight),"cynomolgus monkeys [2]; 450 mg/kg, d 28",0.52 ± 0.03
same,kidney Relative weight (/brain weight),"cynomolgus monkeys [2]; 450 mg/kg, d 28",20.87 ± 1.10
same,Liver Absolute weight,"cynomolgus monkeys [2]; 450 mg/kg, d 56",72.40 ± 11.74 g
same,Liver Relative weight (/body weight),"cynomolgus monkeys [2]; 450 mg/kg, d 56",2.04 ± 0.05
same,Liver Relative weight (/brain weight),"cynomolgus monkeys [2]; 450 mg/kg, d 56",109.03 ± 13.64
